Reference: US8461160B2, “Dihydropyrimidinones” (Hoffmann-La Roche, Inc., priority 2009, dated 2013)

biological target: T1, BACE2 (Homo sapiens, UniProt Q9Y5Z0); experiment: Fluorescent-peptide cleavage assay for BACE2 inhibition; assay type: biochemical; conditions: BACE2 enzyme ectodomain, fluorescent peptide WS EVNLD AEFRC-MR121, assay buffer pH 4.5, room temperature
T1 construct: BACE2 enzyme ectodomain (derived from plasmid “pET17b-T7-hu proBACE2”) was prepared as described in Ostermann et al; T7 tag (N); made in house
T1 sequence (Q9Y5Z0 21-473 limits assumed): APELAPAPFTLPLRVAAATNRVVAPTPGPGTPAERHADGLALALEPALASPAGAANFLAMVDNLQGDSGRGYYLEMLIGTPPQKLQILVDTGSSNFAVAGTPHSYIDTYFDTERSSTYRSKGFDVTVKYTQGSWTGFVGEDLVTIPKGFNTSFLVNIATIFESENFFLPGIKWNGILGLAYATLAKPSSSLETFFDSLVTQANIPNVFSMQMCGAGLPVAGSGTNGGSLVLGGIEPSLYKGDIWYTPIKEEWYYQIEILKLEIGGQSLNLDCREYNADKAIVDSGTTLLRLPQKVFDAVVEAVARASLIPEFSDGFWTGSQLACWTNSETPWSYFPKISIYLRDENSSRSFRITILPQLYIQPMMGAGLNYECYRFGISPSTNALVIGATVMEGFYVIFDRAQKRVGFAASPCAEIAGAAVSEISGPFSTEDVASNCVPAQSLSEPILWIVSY
Summary of the method: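 Pro-enzyme BACE2 was activated at 80 nM for 1 h at room temperature in 100 mM Na-acetate, 20 mM EDTA, 0.05% BSA, pH 4.5, then preincubated 10 min with compound. IC50 from sigmoidal dose-response fit.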

Compound	IC50 [nM]
CN1C(=O)C[C@@](C)(c2cccc(NC(=O)c3ccon3)c2)N=C1N [Example 81, Isoxazole-3-carboxylic acid [3-((S)-2-amino-1,4-dimethyl-6-oxo-1,4,5,6-tetrahydro-pyrimidin-4-yl)-phenyl]-amide]	170
Cc1cc(C(=O)Nc2cccc([C@]3(C)CC(=O)N(C)C(N)=N3)c2)no1 [Example 82, 5-Methyl-isoxazole-3-carboxylic acid [3-((S)-2-amino-1,4-dimethyl-6-oxo-1,4,5,6-tetrahydro-pyrimidin-4-yl)-phenyl]-amide]	590
CCc1ccc(C(=O)Nc2cccc([C@]3(C)CC(=O)N(C)C(N)=N3)c2)nc1 [Example 83, 5-Ethyl-pyridine-2-carboxylic acid [3-((S)-2-amino-1,4-dimethyl-6-oxo-1,4,5,6-tetrahydro-pyrimidin-4-yl)-phenyl]-amide]	40
Cc1cnc(C(=O)Nc2cccc([C@]3(C)CC(=O)N(C)C(N)=N3)c2)[nH]1 [Example 84, 4-Methyl-1H-imidazole-2-carboxylic acid [3-((S)-2-amino-1,4-dimethyl-6-oxo-1,4,5,6-tetrahydro-pyrimidin-4-yl)-phenyl]-amide]	390
CC[C@@]1(c2cccc(NC(=O)c3ccc(F)cn3)c2)CC(=O)N(C)C(N)=N1 [Example 85, 5-Fluoro-pyridine-2-carboxylic acid [3-((S)-2-amino-4-ethyl-1-methyl-6-oxo-1,4,5,6-tetrahydro-pyrimidin-4-yl)-phenyl]-amide]	300
CC[C@@]1(c2cccc(NC(=O)c3ccc(C(F)(F)F)cn3)c2)CC(=O)N(C)C(N)=N1 [Example 86, 5-Trifluoromethyl-pyridine-2-carboxylic acid [3-((S)-2-amino-4-ethyl-1-methyl-6-oxo-1,4,5,6-tetrahydro-pyrimidin-4-yl)-phenyl]amide]	250
CCC[C@@]1(c2cccc(NC(=O)c3ccc(Cl)cn3)c2)CC(=O)N(C)C(N)=N1 [Example 87, 5-Chloro-pyridine-2-carboxylic acid [3-((S)-2-amino-1-methyl-6-oxo-4-propyl-1,4,5,6-tetrahydro-pyrimidin-4-yl)-phenyl]-amide]	170
CCC[C@@]1(c2cccc(NC(=O)c3ccccn3)c2)CC(=O)N(C)C(N)=N1 [Example 88, Pyridine-2-carboxylic acid [3-((S)-2-amino-1-methyl-6-oxo-4-propyl-1,4,5,6-tetrahydro-pyrimidin-4-yl)-phenyl]-amide]	1780
CCC[C@@]1(c2cccc(NC(=O)c3ccn(C)n3)c2)CC(=O)N(C)C(N)=N1 [Example 89, 1-Methyl-1H-pyrazole-3-carboxylic acid [3-((S)-2-amino-1-methyl-6-oxo-4-propyl-1,4,5,6-tetrahydro-pyrimidin-4-yl)-phenyl]-amide]	4750
CCC[C@@]1(c2cccc(NC(=O)c3coc(C)n3)c2)CC(=O)N(C)C(N)=N1 [Example 90, 2-Methyl-oxazole-4-carboxylic acid [3-((S)-2-amino-1-methyl-6-oxo-4-propyl-1,4,5,6-tetrahydro-pyrimidin-4-yl)-phenyl]-amide]	1110
C[C@H]1C(=O)N(C)C(N)=N[C@]1(C)c1cccc(NC(=O)c2ccc(Cl)cn2)c1 [Example 91, 5-Chloro-pyridine-2-carboxylic acid [3-((4S,5R)-2-amino-1,4,5-trimethyl-6-oxo-1,4,5,6-tetrahydro-pyrimidin-4-yl)-phenyl]amide]	17
CC[C@H]1C(=O)N(C)C(N)=N[C@]1(C)c1cccc(NC(=O)c2ccc(Cl)cn2)c1 [Example 92, 5-Chloro-pyridine-2-carboxylic acid [3-((4S,5R)-2-amino-5-ethyl-1,4-dimethyl-6-oxo-1,4,5,6-tetrahydro-pyrimidin-4-yl)-phenyl]-amide]	24
COc1cccnc1C(=O)Nc1cccc([C@@]2(C)N=C(N)N(C)C(=O)C2(C)C)c1 [Example 93, 3-Methoxy-pyridine-2-carboxylic acid [3-((R)-2-amino-1,4,5,5-tetramethyl-6-oxo-1,4,5,6-tetrahydro-pyrimidin-4-yl)-phenyl]amide]	158
CN1C(=O)C(C)(C)[C@@](C)(c2cccc(NC(=O)c3ccc(Cl)cn3)c2)N=C1N [Example 94, 5-Chloro-pyridine-2-carboxylic acid [3-((R)-2-amino-1,4,5,5-tetramethyl-6-oxo-1,4,5,6-tetrahydro-pyrimidin-4-yl)-phenyl]amide]	20
Cc1cc(Cl)cnc1C(=O)Nc1cccc([C@@]2(C)N=C(N)N(C)C(=O)C2(C)C)c1 [Example 95, 5-Chloro-3-methyl-pyridine-2-carboxylic acid [3-((R)-2-amino-1,4,5,5-tetramethyl-6-oxo-1,4,5,6-tetrahydro-pyrimidin-4-yl)-phenyl]amide]	19
CN1C(=O)C(C)(C)[C@@](C)(c2cccc(NC(=O)c3nccc4ccsc34)c2)N=C1N [Example 96, Thieno[2,3-c]pyridine-7-carboxylic acid [3-((R)-2-amino-1,4,5,5-tetramethyl-6-oxo-1,4,5,6-tetrahydro-pyrimidin-4-yl)-phenyl]amide]	370
CN1C(=O)C(C)(C)[C@@](C)(c2cccc(NC(=O)c3ncccc3-c3ccccc3Cl)c2)N=C1N [Example 97, 3-(2-Chloro-phenyl)-pyridine-2-carboxylic acid [3-((R)-2-amino-1,4,5,5-tetramethyl-6-oxo-1,4,5,6-tetrahydro-pyrimidin-4-yl)-phenyl]amide]	180
CN1C(=O)C(C)(C)[C@@](C)(c2cc(NC(=O)c3ccn(C)n3)ccc2F)N=C1N [Example 98, 1-Methyl-1H-pyrazole-3-carboxylic acid [3-((S)-2-amino-1,4,5,5-tetramethyl-6-oxo-1,4,5,6-tetrahydro-pyrimidin-4-yl)-4-fluoro-phenyl]amide]	35
Cc1cc(Cl)cnc1C(=O)Nc1ccc(F)c([C@@]2(C)N=C(N)N(C)C(=O)C2(C)C)c1 [Example 99, 5-Chloro-3-methyl-pyridine-2-carboxylic acid [3-((S)-2-amino-1,4,5,5-tetramethyl-6-oxo-1,4,5,6-tetrahydro-pyrimidin-4-yl)-4-fluoro-phenyl]amide]	13
CN1C(=O)C(C)(C)[C@@](C)(c2cc(NC(=O)c3ccccn3)ccc2F)N=C1N [Example 100, Pyridine-2-carboxylic acid [3-((S)-2-amino-1,4,5,5-tetramethyl-6-oxo-1,4,5,6-tetrahydro-pyrimidin-4-yl)-4-fluoro-phenyl]amide]	43
Cc1nc(C(=O)Nc2ccc(F)c([C@@]3(C)N=C(N)N(C)C(=O)C3(C)C)c2)co1 [Example 101, 2-Methyl-oxazole-4-carboxylic acid [3-((S)-2-amino-1,4,5,5-tetramethyl-6-oxo-1,4,5,6-tetrahydro-pyrimidin-4-yl)-4-fluoro-phenyl]amide]	21
Cc1ccc(C(=O)Nc2ccc(F)c([C@@]3(C)N=C(N)N(C)C(=O)C3(C)C)c2)s1 [Example 102, 5-Methyl-thiophene-2-carboxylic acid [3-((S)-2-amino-1,4,5,5-tetramethyl-6-oxo-1,4,5,6-tetrahydro-pyrimidin-4-yl)-4-fluoro-phenyl]amide]	52
CN1C(=O)C(C)(C)[C@@](C)(c2cc(NC(=O)c3ccc(OC(F)F)cn3)ccc2F)N=C1N [Example 103, 5-Difluoromethoxy-pyridine-2-carboxylic acid [3-((S)-2-amino-1,4,5,5-tetramethyl-6-oxo-1,4,5,6-tetrahydro-pyrimidin-4-yl)-4-fluoro-phenyl]amide]	25
COc1cccnc1C(=O)Nc1ccc(F)c([C@@]2(C)N=C(N)N(C)C(=O)C2(C)C)c1 [Example 104, 3-Methoxy-pyridine-2-carboxylic acid [3-((S)-2-amino-1,4,5,5-tetramethyl-6-oxo-1,4,5,6-tetrahydro-pyrimidin-4-yl)-4-fluoro-phenyl]amide]	150
Cc1cccnc1C(=O)Nc1ccc(F)c([C@@]2(C)N=C(N)N(C)C(=O)C2(C)C)c1 [Example 105, 3-Methyl-pyridine-2-carboxylic acid [3-((S)-2-amino-1,4,5,5-tetramethyl-6-oxo-1,4,5,6-tetrahydro-pyrimidin-4-yl)-4-fluoro-phenyl]amide]	49
CN1C(=O)C(C)(C)[C@@](C)(c2cc(NC(=O)c3ncc(Cl)cn3)ccc2F)N=C1N [Example 106, 5-Chloro-pyrimidine-2-carboxylic acid [3-((S)-2-amino-1,4,5,5-tetramethyl-6-oxo-1,4,5,6-tetrahydro-pyrimidin-4-yl)-4-fluoro-phenyl]amide]	28
CN1C(=O)C(C)(C)[C@@](C)(c2cc(NC(=O)c3cnc(Cl)cn3)ccc2F)N=C1N [Example 107, 5-Chloro-pyrazine-2-carboxylic acid [3-((S)-2-amino-1,4,5,5-tetramethyl-6-oxo-1,4,5,6-tetrahydro-pyrimidin-4-yl)-4-fluoro-phenyl]amide]	27
CN1C(=O)C(C)(C)[C@@](C)(c2cc(NC(=O)c3ncccc3F)ccc2F)N=C1N [Example 108, 3-Fluoro-pyridine-2-carboxylic acid [3-((S)-2-amino-1,4,5,5-tetramethyl-6-oxo-1,4,5,6-tetrahydro-pyrimidin-4-yl)-4-fluoro-phenyl]amide]	28
